Laboratory results published in patent US20230099293A1, “OGA INHIBITOR COMPOUNDS” (priority 2019, published 2023).

How the values were obtained:
[1] = molecular target: T1, recombinant human Meningioma Expressed Antigen 5 (MGEA5), also referred to as O-GlcNAcase (OGA) (Homo sapiens, UniProt O60502); test: OGA biochemical assay (inhibition of FM-GlcNAc hydrolysis, fluorescence); conditions: for IC50: Enzymatic hOGA, pIC50, Table 5, full length OGA 2 nM, FM-GlcNAc 100 uM, 6 h at room temperature; for Emax: read-out: Enzymatic Emax (%)
T1 construct: Full length OGA enzyme was purchased at OriGene (cat #TP322411); purchased OriGene TP322411
T1 sequence (O60502 1-916): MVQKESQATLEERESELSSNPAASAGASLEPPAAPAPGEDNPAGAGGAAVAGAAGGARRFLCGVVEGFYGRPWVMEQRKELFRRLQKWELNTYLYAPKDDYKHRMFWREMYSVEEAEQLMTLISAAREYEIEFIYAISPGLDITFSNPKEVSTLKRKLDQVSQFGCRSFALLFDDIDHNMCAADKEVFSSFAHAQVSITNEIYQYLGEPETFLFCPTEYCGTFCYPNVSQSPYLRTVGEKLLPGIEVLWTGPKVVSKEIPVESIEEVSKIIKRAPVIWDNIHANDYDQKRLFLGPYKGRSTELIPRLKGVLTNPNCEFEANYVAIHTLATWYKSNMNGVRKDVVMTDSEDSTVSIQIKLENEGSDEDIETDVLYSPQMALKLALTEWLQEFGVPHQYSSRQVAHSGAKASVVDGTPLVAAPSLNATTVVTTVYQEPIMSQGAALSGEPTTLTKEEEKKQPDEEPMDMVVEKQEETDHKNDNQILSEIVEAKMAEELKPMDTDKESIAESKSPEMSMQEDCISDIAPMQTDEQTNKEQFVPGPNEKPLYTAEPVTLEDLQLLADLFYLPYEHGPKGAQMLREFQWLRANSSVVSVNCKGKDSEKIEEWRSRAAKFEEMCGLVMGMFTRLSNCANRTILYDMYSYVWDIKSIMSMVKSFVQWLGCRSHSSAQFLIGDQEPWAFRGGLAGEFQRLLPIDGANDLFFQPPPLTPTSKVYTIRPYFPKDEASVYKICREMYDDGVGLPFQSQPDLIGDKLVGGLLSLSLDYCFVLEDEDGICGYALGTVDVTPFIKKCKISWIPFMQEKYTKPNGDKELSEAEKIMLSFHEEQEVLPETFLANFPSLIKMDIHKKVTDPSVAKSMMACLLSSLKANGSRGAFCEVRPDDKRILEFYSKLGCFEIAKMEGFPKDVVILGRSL
Method: The hydrolysis FM-GlcNAc (Marker Gene technologies, cat #M1485) results in the formation of β-D-N-glucosamineacetate and fluorescein. The fluorescence of the latter can be measured at excitation wavelength 485 nm and emission wavelength 538 nm. An increase in enzyme activity results in an increase in fluorescence signal. Full length OGA enzyme was purchased at OriGene (cat #TP322411). The enzyme was stored in 25 mM Tris.HCl, pH 7.3, 100 mM glycine, 10% glycerol at −20° C. […] The assay was performed in 200 mM Citrate/phosphate buffer supplemented with 0.005% Tween-20. 35.6 g Na2HIPO42H2O (Sigma, #C0759) were dissolved in 1 L water to obtain a 200 mM solution. […] The buffer to stop the reaction consists of a 500 mM Carbonate buffer, pH 11.0. […] OGA was used at a 2 nM concentration and FM-GlcNAc at a 100 uM final concentration. Dilutions were prepared in assay buffer.
Plates were pre-incubated for 60 min at room temperature and then 2 μl FM-GlcNAc substrate mix added. […] Plates were briefly centrifuged for 1 min at 1000 rpm and incubate at room temperature for 6 h. To stop the reaction 5 μl STOP buffer were added and plates centrifuge again 1 min at 1000 rpm. Fluorescence was quantified in the Thermo Scientific Fluoroskan Ascent or the PerkinElmer EnVision with excitation wavelength 485 nm and emission wavelength 538 nm.
For analysis a best-fit curve is fitted by a minimum sum of squares method. From this an IC50 value and Hill coefficient was obtained. High control (no inhibitor) and low control (saturating concentrations of standard inhibitor) were used to define the minimum and maximum values.

hOGA = molecular target: T2, hOGA (Homo sapiens, UniProt O60502); test: OGA cellular assay (ICC detection of O-GlcNAcylated proteins in HEK293 cells inducible for P301L mutant human Tau); format: cell-based; design: Emax: dose or concentration left out as unconfirmed; conditions: for EC50: Cellular hOGA, pEC50, Table 5, HEK293 P301L Tau cells, 6 hours incubation, O-GlcNAcylation readout; for Emax: HEK293, read-out: Cellular Emax (%)
T2 construct: endogenous in cells; host or cells: HEK293 cells inducible for P301L mutant human Tau (isoform 2N4R)
T2 sequence (O60502 1-916): T1 sequence (O60502 1-916)
Method: HEK293 cells inducible for P301L mutant human Tau (isoform 2N4R) were established at Janssen. Thiamet-G was used for both plate validation (high control) and as reference compound (reference EC50 assay validation). OGA inhibition is evaluated through the immunocytochemical (ICC) detection of O-GlcNAcylated proteins by the use of a monoclonal antibody (CTD110.6; Cell Signaling, #9875) detecting O-GlcNAcylated residues as previously described (Dorfmueller et al. 2010 Chemistry & biology, 17:1250). Inhibition of OGA will result in an increase of O-GlcNAcylated protein levels resulting in an increased signal in the experiment. Cell nuclei are stained with Hoechst to give a cell culture quality control and a rough estimate of immediate compounds toxicity, if any. ICC pictures are imaged with a Perkin Elmer Opera Phenix plate microscope and quantified with the provided software Perkin Elmer Harmony 4.1.
Cells were propagated in DMEM high Glucose (Sigma, #D5796) following standard procedures. 2 days before the cell assay cells are split, counted and seeded in Poly-D-Lysine (PDL) coated 96-wells (Greiner, #655946) plate at a cell density of 12,000 cells per cm^2 (4,000 cells per well) in 100 μl of Assay Medium (Low Glucose medium is used to reduce basal levels of GlcNAcylation) (Park et al. 2014 The Journal of biological chemistry 289:13519). At the day of compound test medium from assay plates was removed and replenished with 90 μl of fresh Assay Medium. 10 μl of compounds at a 10 fold final concentration were added to the wells. Plates were centrifuged shortly before incubation in the cell incubator for 6 hours. DMSO concentration was set to 0.2%. Medium is discarded by applying vacuum. For staining of cells medium was removed and cells washed once with 100 μl D-PBS (Sigma, #D8537). From next step onwards unless other stated assay volume was always 50 μl and incubation was performed without agitation and at room temperature. Cells were fixed in 50 μl of a 4% paraformaldehyde (PFA, Alpha aesar, #043368) PBS solution for 15 minutes at room temperature. […] Before analysis samples were washed 2 times manually for 5 minutes in ICC base buffer.
Imaging is performed using Perkin Elmer Phenix Opera using a water 20× objective and recording 9 fields per well. Intensity readout at 488 nm is used as a measure of O-GlcNAcylation level of total proteins in wells. To assess potential toxicity of compounds nuclei were counted using the Hoechst staining. IC50-values are calculated using parametric non-linear regression model fitting. As a maximum inhibition Thiamet Gat a 200 uM concentration is present on each plate. In addition, a concentration response of Thiamet G is calculated on each plate.

SMILES | IC50 [1] | Emax [1] | EC50 (hOGA) | Emax (hOGA) | melting point
Cc1cc(OC(F)(F)F)cc(Cl)c1Nc1nccc2c1ncn2CC(=O)N(C)C [Compound 16] | 13.5 nM | 101% | 316 nM | 66% | 182.81 °C
CN(C)C(=O)Cn1cnc2c(Nc3c(Cl)cc(C(F)(F)F)cc3Cl)nccc21 [Compound 17] | 16.2 nM | 99% | 316 nM | 77% | 238.4 °C
Cc1ccc(C(F)(F)F)c(C)c1Nc1nccc2c1ncn2CC(=O)N(C)C [Compound 18] | 16.2 nM | 99% | 631 nM | 56% | 250 °C
Cc1cc(C)c(Nc2nccc3c2ncn3CC(=O)N(C)C)c(C)c1 [Compound 19] | 20 nM | 98% | 537 nM | 62% | 270.2 °C
Cc1cc(F)cc(C)c1Nc1nccc2c1ncn2CC(=O)N(C)C [Compound 20] | 18.6 nM | 98% | 170 nM | 83% | 216.7 °C
CN(C)C(=O)Cn1cnc2c(Nc3c(Cl)cc(F)cc3Cl)nccc21 [Compound 21] | 30.9 nM | 95% | 123 nM | 69% | 243.4 °C
Cc1cc(-c2cnn(C)c2)cc(C(C)C)c1Nc1nccc2c1ncn2CC(=O)N(C)C [Compound 22] | 41.7 nM | 98% | > 1000 nM | 31% | 234.4 °C
Cc1cc(C(F)(F)F)nc(C)c1Nc1nccc2c1ncn2CC(=O)N(C)C [Compound 23] | 45.7 nM | 99% | 1020 nM | 51% | 233.3 °C
CN(C)C(=O)Cn1cnc2c(Nc3c(Cl)cc(F)cc3C(F)(F)F)nccc21 [Compound 24] | 45.7 nM | 96% | 398 nM | 82% | 219.9 °C
Cc1cc(C(F)(F)F)cc(F)c1Nc1nccc2c1ncn2CC(=O)N(C)C [Compound 25] | 135 nM | 96% | > 1000 nM | 29% | 226.6 °C
Cc1nccc(C(F)F)c1Nc1nccc2c1ncn2CC(=O)N(C)C [Compound 27] | 372 nM | 89% | > 1000 nM | 18% | 216.6 °C
CN(C)C(=O)Cn1cnc2c(Nc3ccc(F)cc3C(F)(F)F)nccc21 [Compound 29] | 1000 nM | 100% | > 200 nM | 2% | 246.7 °C
Cc1cc2c(ncn2CC(=O)N(C)C)c(Nc2c(C)cc(C(F)(F)F)cc2C)n1 [Compound 30] | 5890 nM | 55% | > 1000 nM | 12% | 188.2 °C
CC(C)c1cc(C(F)(F)F)cc(F)c1Nc1nccc2c1ncn2CC(=O)N(C)C [Compound 31] | 87.1 nM | 104% | > 1000 nM | 36% | 191.4 °C
Cc1nn(-c2ccc(F)cn2)c(C)c1Nc1nccc2c1ncn2CC(=O)N(C)C [Compound 32] | 174 nM | 100% | > 1000 nM | 34% | 256.6 °C
Cc1nn(-c2cccc(C#N)c2)c(C)c1Nc1nccc2c1ncn2CC(=O)N(C)C [Compound 33] | 20.4 nM | 97% | 479 nM | 63% | 239.9 °C
Cc1nn(-c2cccc(F)c2)c(C)c1Nc1nccc2c1ncn2CC(=O)N(C)C [Compound 34] | 36.3 nM | 99% | 562 nM | 54% | 181.5 °C
Cc1cc(C(F)(F)F)cc(C)c1Nc1ncc(F)c2c1ncn2CC(=O)N(C)C [Compound 35] | 178 nM | 96% | > 1000 nM | 25% | 236.7 °C
COc1cccc(-n2nc(C)c(Nc3nccc4c3ncn4CC(=O)N(C)C)c2C)c1 [Compound 36] | 29.5 nM | 101% | 603 nM | 55% | 179.7 °C
CC(=O)n1nc(C)c(Nc2nccc3c2ncn3CC(=O)N(C)C)c1C [Compound 37] | > 10000 nM | 2% | > 1000 nM | 8% | 175.4 °C
Cc1n[nH]c(C)c1Nc1nccc2c1ncn2CC(=O)N(C)C [Compound 38] | 912 nM | 90% | > 1000 nM | 6% | 283.5 °C
Cc1c(C(F)(F)F)nn(C)c1Nc1nccc2c1ncn2CC(=O)N(C)C [Compound 39] | 631 nM | 94% | > 1000 nM | 12% | 240 °C
Cc1c(-c2cccc(F)c2)nn(C)c1Nc1nccc2c1ncn2CC(=O)N(C)C [Compound 40] | 105 nM | 102% | > 1000 nM | 27% | 230 °C
Cc1nn(-c2ccccc2)c(C)c1Nc1nccc2c1ncn2CC(=O)N(C)C [Compound 41] | 28.2 nM | 95% | > 1000 nM | 44% | 126.3 °C
